Results published in ChEMBL document CHEMBL3272124, “Synthesis of tetrazole ribonucleosides and their evaluation as antiviral agents. 2. 5-Amino-1-(beta-D-ribofuranosyl)-1H-tetrazole and 5-amino-2-(beta-D-ribofuranosyl)-2H-tetrazole” (J Med Chem, 1976).
Calls of active or inactive are those of the source. The rule behind the calls is not given here.

Each molecule was assayed on Influenza A virus (assay: Antiviral activity against Influenza A virus A2/Asian/J305 infected in Swiss albino mouse assessed as increase in host survival at 50 mg/kg, ip administered as 7 doses immediately before virus inoculation and at 1, 5, 24, 30, 48 and 72 hrs after virus infection measured on 21st day post-infection).
Assay type: functional, organism-based
Design: dose 50 mg/kg

| SMILES | Activity |
| --- | --- |
| Nc1nnn([C@@H]2O[C@H](CO)[C@@H](O)[C@H]2O)n1 | inactive |
| NC(=O)c1ncn([C@@H]2O[C@H](CO)[C@@H](O)[C@H]2O)n1 | Active |
| Nc1nnnn1[C@@H]1O[C@H](CO)[C@@H](O)[C@H]1O | inactive |
